{
  "source": "patent US20110318302A1",
  "about": "“Cancer Treatment” (priority 2009, published 2011)",
  "test_system": "human renal cancer cell line Caki-1",
  "assay": "Caki-1 tumour mouse model, single and combination therapy (tumour volume)",
  "type": "in vivo, BALB/c nude mice",
  "details": "single agent; s.c. Caki-1 tumours; F8-IL2 20 μg i.v. 3x every 3rd day; sorafenib or sunitinib 60 mg/kg p.o. 7 days; huIFNa2b/muIFNa1 10.000 IU/10.000 IU s.c. 3x; two treatment cycles (days 11-17, 37-43)",
  "experimental": "For the combination therapy, the human renal cancer cell line Caki-1 (clear cell carcinoma from kidney; ATCC) was cultured in DMEM containing 10% fetal bovine serum and 2 mM L-glutamine (all Invitrogen).\nFemale BALE/c nude mice were obtained from Charles River Laboratories. All experiments were performed according to Swiss regulations and under a project license granted by the Veterinäramt des Kantons Zürich.\nSorafenib tosylate (Nexavar, Bayer Schering) and sunitinib malate (Sutent, Pfizer) were obtained in the commercially available forms of 200 mg tablets and 50 mg capsules, respectively. The total tablet weight of sorafenib is 350 mg and an index of 1.75 was used to keep the molarity in terms of active compound. Sorafenib tablets were pulverized with mortar and pestle and kept from light in a desiccator. For in vivo administration, pulverized sorafenib was dissolved in a solution of CremophorEL:Ethanol:H2O (12.5%:12.5%:75%). The content of a sunitinib malate capsule was 167 mg and a correction factor of 3.3 was used for molarity adjustment. […]\nMice were monitored daily and tumor volumes were measured three times per week with a digital caliper using the following formula: volume=length×width^2×0.5. […] Tumor volumes are expressed as mean±SE (standard error). […]",
  "data": [
    {"smiles": "CNC(=O)c1cc(Oc2ccc(NC(=O)Nc3ccc(Cl)c(C(F)(F)F)c3)cc2)ccn1", "note": "[Sorafenib]", "values": [
      {"measurement": "tumour burden (tumour volume) versus PBS control", "value": "little or no effect on tumour burden"}
    ]}
  ]
}
